Measurements: US5679678A, “Thienithiazine derivatives” (Chemisch Pharmazeutische Forschungsgesellschaft m.b.H., priority 1991, dated 1997)
pIC50: −log10 of the molar value.

Tests used:
5-lipoxygenase = target: T1, 5-lipoxygenase (Rattus norvegicus, UniProt P12527); experiment: Formation of leucotrien B4 by neutrophils (measure of 5-lipoxygenase activity), A23187 stimulated, RIA; format: cell-based, Sprague-Dawley rats; conditions: rat peritoneal neutrophils (lambda-carageenan), 5 min preincubation at 37° C., A23187 2 μmol/l, read-out: IC50 LTB4
T1 construct: endogenous in cells; host or cells: peritoneal neutrophils of male Sprague-Dawley rats, elicited by i.p. carrageenan (16 h)
T1 sequence (P12527 1-673): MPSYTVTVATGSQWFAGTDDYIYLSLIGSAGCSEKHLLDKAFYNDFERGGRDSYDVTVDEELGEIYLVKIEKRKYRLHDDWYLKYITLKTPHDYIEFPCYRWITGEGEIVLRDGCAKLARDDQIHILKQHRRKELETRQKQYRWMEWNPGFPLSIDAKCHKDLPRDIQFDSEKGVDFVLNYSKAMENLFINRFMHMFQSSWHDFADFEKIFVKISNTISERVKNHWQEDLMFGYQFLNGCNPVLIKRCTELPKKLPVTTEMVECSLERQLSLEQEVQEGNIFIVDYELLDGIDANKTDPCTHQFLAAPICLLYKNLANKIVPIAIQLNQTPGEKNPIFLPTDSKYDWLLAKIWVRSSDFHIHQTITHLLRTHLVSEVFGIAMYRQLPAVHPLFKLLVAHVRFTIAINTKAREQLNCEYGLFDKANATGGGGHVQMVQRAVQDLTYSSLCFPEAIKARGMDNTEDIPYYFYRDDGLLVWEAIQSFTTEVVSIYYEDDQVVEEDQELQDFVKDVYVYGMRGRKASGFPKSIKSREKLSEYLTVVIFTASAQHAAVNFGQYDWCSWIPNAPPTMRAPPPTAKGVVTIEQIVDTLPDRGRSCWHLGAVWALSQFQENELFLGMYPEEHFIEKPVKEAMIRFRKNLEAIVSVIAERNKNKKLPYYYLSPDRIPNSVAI
Procedure: (§1) The formation of prostaglandin D2 by neutrophils was used as a measure of the cyclooxygenase activity, and the formation of leucotrien B4 as a measure of the 5-lipoxygenase activity.
(§2) Male Sprague-Dawley rats (250-300 g) received 1 mg of lambda-carageenan (dissolved in 0.5 ml of distilled water) injected intraperitoneally.
(§3) After 16 hours, the rats were sacrificed by exposure to diethyl ether. 15 ml of Hanks balanced salt solution (HBSS) were injected i.p., the neutrophils were harvested by aspiration (10 ml) and were centrifuged (5 min, 100 g, 4° C.), the supernatant solution was decanted, and the cells were resuspended in HBSS at 4° C. to a concentration of 5×10^6 cells/ml.
(§4) 400 μl of cell suspension (2×10^6 cells), […] of compound dissolved in DMSO and 49.5 μl of HBSS were incubated at 37° C. for 5 min. Then 50 μl of A23187 (2 μmol/1 final concentration) were added and subsequently the mixture was again incubated at 37° C. for 5 min.
(§5) The reaction was stopped by centrifugation at 10,000 g for 3 s, and the supernatant liquid was transferred into precooled plastic tubes and left in an ice bath for a maximum of 1 h before starting the radioimmunoassay measurement.
(§6) PGD2 and LTB4 were measured after dilution with HBSS using commercial RIA kits.
(§7) The comparison substance was 6-chloro-2-methyl-N-(2-pyridyl)-2H-thieno[2,3-e]-1,2-thiazine-3-carboxamide 1,1-dioxide ("LORNOXICAM", Compound A).

cyclooxygenase = experiment: Formation of prostaglandin D2 by neutrophils (measure of cyclooxygenase activity), A23187 stimulated, RIA; format: cell-based, Sprague-Dawley rats; conditions: rat peritoneal neutrophils (lambda-carageenan), 5 min preincubation at 37° C., A23187 2 μmol/l, read-out: IC50 PGD2
Procedure: as §1, §2, §3, §4, §5, §6, §7

SMILES | pIC50 (5-lipoxygenase) | pIC50 (cyclooxygenase)
CN1C(C(=O)Nc2nc(-c3ccc(Oc4ccc(F)cc4)o3)cs2)=C(O)c2sc(Cl)cc2S1(=O)=O [Compound 4, 6-Chloro-N-{4-[5-(4-fluorophenoxy)-2-furanyl]-2-thiazolyl}-4-hydroxy-2-methyl-2H-thieno[2,3-e]-1,2-thiazine-3-carboxamide 1,1-dioxide] | 6.33 | 5.47
CN1C(C(=O)Nc2nc(-c3ccc(-c4ccc(F)cc4)o3)cs2)=C(O)c2sc(Cl)cc2S1(=O)=O [Compound 6, 6-Chloro-N-{4-[5-(4-fluorophenyl)-2-furanyl]-2-thiazolyl}-4-hydroxy-2-methyl-2H-thieno[2,3-e]-1,2-thiazine-3-carboxamide 1,1-dioxide] | 6.24 | 5.44
CN1C(C(=O)Nc2nc(-c3ccc(-c4ccc(F)cc4)o3)cs2)=C(O)c2sc(-c3ccco3)cc2S1(=O)=O [Compound 7, N-{4-[5-(4-Fluorophenyl)-2-furanyl]-2-thiazolyl}-6-(2-furanyl)-4-hydroxy-2-methyl-2H-thieno[2,3-e]-1,2-thiazine-3-carboxmide 1,1-dioxide] | 6.14 | 5.80
CN1C(C(=O)Nc2nc(-c3ccccc3)cs2)=C(O)c2sc(Cl)cc2S1(=O)=O [Compound 2, 6-Chloro-4-hydroxy-2-methyl-N-(4phenyl-2-thiazolyl)-2H-thieno[2,3-e]-1,2-thiazine-3-carboxamide 1,1-dioxide] | < 5.00 | 7.57
CN1C(C(=O)Nc2nc(-c3ccc(Oc4ccc(F)cc4)o3)cs2)=C(O)c2sc(-c3ccco3)cc2S1(=O)=O [Compound 5, N-{4[5-(4-Fluorophenoxy)-2-furanyl]-2-thiazolyl}-6-(2-furanyl)-4-hydroxy-2-methyl-2H-thieno[2,3-]-1,2-thiazine-3-carboxamide 1,1-dioxide] | 6.18 | 6.57
CN1C(C(=O)Nc2nccs2)=C(O)c2sc(Cl)cc2S1(=O)=O [Compound 1, 6-Chloro-4-hydroxy-2-methyl-N-(2-thiazolyl)-2H-thieno[2,3-e]-1,2-thiazine-3-carboxamide 1,1-dioxide] | < 5.00 | 7.77
CN1C(C(=O)Nc2nc(-c3cc4ccccc4o3)cs2)=C(O)c2sc(-c3ccco3)cc2S1(=O)=O [Compound 9, N-[4-(2-Benzo[b]furanyl)-2-thiazolyl]-6-(2-furanyl)-4-hydroxy-2-methyl-2H-thieno[2,3-e]-1,2-thiazine-3-carboxamide 1,1-dioxide] | 5.80 | 7.41
CN1C(C(=O)Nc2nc(-c3cc4ccccc4o3)cs2)=C(O)c2sc(Cl)cc2S1(=O)=O [Compound 8, N-[4-(2-Benzo[b]furanyl)-2-thiazolyl]-6-chloro-4-hydroxy-2-methyl-2H-thieno[2,3-e]-1,2-thiazine-3-carboxamide 1,1-dioxide] | 5.66 | 7.00
CN1C(C(=O)Nc2nc(-c3ccccc3)cs2)=C(O)c2sc(-c3ccco3)cc2S1(=O)=O [Compound 3, 6-(2-Furyl)-4-hydroxy-2-methyl-N-(4-phenyl-2thiazolyl)-2H-thieno[2,3-e]-1,2-thiazine-3-carboxamide 1,1-dioxide] | 5.28 | 7.77

Other lines, results leading:

pIC50 (5-lipoxygenase) | pIC50 (cyclooxygenase) | SMILES
5.89 | 7.17 | CN1C(C(=O)Nc2cccc(-c3cc4ccccc4o3)n2)=C(O)c2sc(-c3cccs3)cc2S1(=O)=O [Compound 18, N-[6-(2-Benzo[b]furyl)-2-pyridinyl]-4-hydroxy-2-methyl-6-(2-thienyl)-2H-thieno[2,3-e]-1,2-thiazine-3-carboxamide 1,1-dioxide]
< 5.00 | 7.42 | CN1C(C(=O)Nc2ccccn2)=C(O)c2sc(-c3ccccc3)cc2S1(=O)=O [Compound 14, 4-Hydroxy-2-methyl-6-phenyl-N-(2-pyridinyl)-2H-thieno-[2,3-e]-1,2-thiazine-3-carboxamide 1,1-dioxide]
5.57 | 6.72 | CN1C(C(=O)Nc2nc(-c3cc4ccccc4s3)co2)=C(O)c2sc(Cl)cc2S1(=O)=O [Compound 12, N-[4-(2-Benzo[b]thienyl)-2-oxazolyl]-6-chloro-4-hydroxy-2-methyl-2H-thieno[2,3e]-thiazine-3-carboxamide 1,1-dioxide]
5.68 | 6.70 | CN1C(C(=O)Nc2nc(-c3cc4ccccc4o3)co2)=C(O)c2sc(-c3ccco3)cc2S1(=O)=O [Compound 11]
< 5.00 | 8.46 | CN1C(C(=O)Nc2ccccn2)=C(O)c2sc(-c3cccs3)cc2S1(=O)=O [Compound 15, 4-Hydroxy-2-methyl-N-(2-pyridinyl)-6-(2-thienyl)-2H-thieno[2,3-e]-1,2-thiazine-3-carboxamide 1,1-dioxide]
< 5.00 | 8.02 | CN1C(C(=O)Nc2ccccn2)=C(O)c2sc(-c3ccco3)cc2S1(=O)=O [Compound 16, 6-(2-Furyl)-4-hydroxy-2-methyl-N-(2-pyridinyl)-2H-thieno[2,3-e]-1,2-thiazine-3-carboxamide 1,1-dioxide]
5.85 | 7.41 | CN1C(C(=O)Nc2cccc(-c3cc4ccccc4o3)n2)=C(O)c2sc(-c3ccco3)cc2S1(=O)=O [Compound 19, N-[6-(2-Benzo[b]furyl)-2-pyridinyl]-6-(2-furyl)-4-hydroxy-2-methyl-2H-thieno[2,3e]-1,2-thiazine-3-carboxamide 1,1-dioxide]
< 5.00 | 7.70 | CN1C(C(=O)Nc2ccccn2)=C(O)c2sc(Cl)cc2S1(=O)=O [Compound A, reference compound]
5.89 | 6.72 | CN1C(C(=O)Nc2cccc(-c3cc4ccccc4o3)n2)=C(O)c2sc(-c3ccccc3)cc2S1(=O)=O [Compound 17, N-[6-(2-Benzo[b]furyl)-2-pyridinyl]-4-hydroxy-2-methyl-6-phenyl-2H-thieno[2,3-e]-1,2-thiazine-3-carboxamide 1,1-dioxide]
